target: T1, SMYD3 (Homo sapiens, UniProt Q9H7B4); assay: SMYD3 biochemical assay (MTase-Glo, MAP3K2 peptide substrate); details: Table 3; MTase assay, MAP3K2 peptide substrate; read-out: IC50
T1 sequence (Q9H7B4 1-428): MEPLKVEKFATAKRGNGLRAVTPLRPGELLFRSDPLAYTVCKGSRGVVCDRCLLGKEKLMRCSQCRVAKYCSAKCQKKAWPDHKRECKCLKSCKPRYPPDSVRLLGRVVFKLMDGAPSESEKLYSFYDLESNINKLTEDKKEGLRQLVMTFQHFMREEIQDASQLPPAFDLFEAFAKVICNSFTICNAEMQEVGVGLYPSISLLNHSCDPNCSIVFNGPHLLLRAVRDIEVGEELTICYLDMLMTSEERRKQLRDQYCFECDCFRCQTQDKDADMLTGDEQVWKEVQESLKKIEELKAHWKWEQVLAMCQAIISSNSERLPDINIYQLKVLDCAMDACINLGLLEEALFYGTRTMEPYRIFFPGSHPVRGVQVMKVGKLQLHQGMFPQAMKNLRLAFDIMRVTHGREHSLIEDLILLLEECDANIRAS
Method in brief: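 Methylation of MAP3K2 peptide (10 µM final) with SAM (1.0 µM final) by SMYD3, 30 min at room temperature. SAH formed was enzymatically converted to ATP and detected as luminescence with MTase-Glo reagents; IC50 by non-linear regression.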

| IC50 [µM] | Structure (SMILES) |
| --- | --- |
| 0.15 | CCCOC(=O)N1CCN(C(=O)c2ccc3c(Cl)cc(-c4ccc5[nH]ncc5c4)nc3c2)C[C@@H]1C [B169, Propyl (S)-4-(4-chloro-2-(1H-indazol-5-yl)quinoline-7-carbonyl)-2-methylpiperazine-1-carboxylate] |
| 0.77 | CCCOC(=O)N1CCN(C(=O)c2ccc3c(Cl)cc(-c4cccc(C)c4)nc3c2)CC1 [B011, Propyl 4-(4-chloro-2-(m-tolyl)quinoline-7-carbonyl)piperazine-1-carboxylate] |
| 0.36 | CCCOC(=O)N1CCN(C(=O)c2ccc3c(Cl)cc(-c4ccc(C(=O)NC)c(C)c4)nc3c2)CC1 [B236, Propyl 4-(4-chloro-2-(3-methyl-4-(methylcarbamoyl)phenyl)quinoline-7-carbonyl)piperazine-1-carboxylate] |
| 0.21 | CCCOC(=O)N1CCN(C(=O)c2ccc3c(Cl)cc(-c4cnn(CC(F)(F)F)c4)nc3c2)CC1 [B274, Propyl 4-(4-chloro-2-(1-(2,2,2-trifluoroethyl)-1H-pyrazol-4-yl)quinoline-7-carbonyl)piperazine-1-carboxylate] |
| 0.15 | CCCOC(=O)N1CCN(C(=O)c2ccc3c(Cl)c(C)c(-c4ccc(OC)cc4)nc3c2)C[C@H]1C [B036, Propyl (R)-4-(4-chloro-2-(4-methoxyphenyl)-3-methylquinoline-7-carbonyl)-2-methylpiperazine-1-carboxylate] |
| 0.026 | CCCOC(=O)N1CCN(C(=O)c2ccc3c(Cl)cc(-c4ccc(C(=O)NC5CC5)cc4)nc3c2)CC1 [B210, Propyl 4-(4-chloro-2-(4-(cyclopropylcarbamoyl)phenyl)quinoline-7-carbonyl)piperazine-1-carboxylate] |
| 0.15 | CCCOC(=O)N1CCN(C(=O)c2ccc3c(Cl)c4c(nc3c2)CC(c2ccccn2)CC4)C[C@@H]1C (stereo partly drawn) [A073, Propyl (2S)-4-(9-chloro-6-(pyridin-2-yl)-5,6,7,8-tetrahydroacridine-3-carbonyl)-2-methylpiperazine-1-carboxylate] |
| 0.19 | CCCOC(=O)N1C2CCCC1CN(C(=O)c1ccc3c(Cl)c4c(nc3c1)CCCC4)C2 [A013, Propyl 3-(9-chloro-5,6,7,8-tetrahydroacridine-3-carbonyl)-3,9-diazabicyclo[3.3.1]nonane-9-carboxylate] |
| 1.2 | CCCOC(=O)N1CCN(C(=O)c2ccc3c(Cl)c4c(nc3c2)CCC(CN(C)C)C4)CC1 (centres unmarked) [A068, Propyl 4-(9-chloro-7-((dimethylamino)methyl)-5,6,7,8-tetrahydroacridine-3-carbonyl)piperazine-1-carboxylate] |
| 10 | C=CCOC(=O)N1CCN(C(=O)c2ccc3c(Cl)c4c(nc3c2)CCC4)CC1 [C002, Allyl 4-(9-chloro-2,3-dihydro-1H-cyclopenta[b]quinoline-6-carbonyl)piperazine-1-carboxylate] |
| 7.4 | CNC(=O)c1ccc(-c2cc(Cl)c3ccc(C(=O)N4CCN(C(=O)OCCF)CC4)cc3n2)cc1 [B247, 2-Fluoroethyl 4-(4-chloro-2-(4-(methylcarbamoyl)phenyl)quinoline-7-carbonyl)piperazine-1-carboxylate] |
| 1.13 | CCCOC(=O)N1CCN(C(=O)c2ccc3c(Cl)cc(-c4cscn4)nc3c2)CC1 [B153, Propyl 4-(4-chloro-2-(thiazol-4-yl)quinoline-7-carbonyl)piperazine-1-carboxylate] |
| 0.39 | CCCOC(=O)N1CCN(C(=O)c2ccc3c(Cl)c4c(nc3c2)CC(Cc2ccccn2)CC4)CC1 (centres unmarked) [A103, Propyl 4-(9-chloro-6-(pyridin-2-ylmethyl)-5,6,7,8-tetrahydroacridine-3-carbonyl)piperazine-1-carboxylate] |
| 0.69 | CCCOC(=O)N1CCN(C(=O)c2ccc3c(Cl)cc(-c4ccc(C(=O)N(C)C)cc4)nc3c2)C[C@H]1C [B082, Propyl (R)-4-(4-chloro-2-(4-(dimethylcarbamoyl)phenyl)quinoline-7-carbonyl)-2-methylpiperazine-1-carboxylate] |

— patent publication US20190071416A1, “COMPOUNDS FOR TREATMENT OF CANCER AND EPIGENETICS” (Agency For Science, Technology and Research, priority 2015, published 2019)
